Legend:
[1] = tested on: psoriatic patients or patients affected by acne, dermatitis seborrheic, neurodermatitis and itches; conditions: trachoma, herpetic keratitis, verruca; cited from earlier work
herpetic keratitis = conditions: topic and systemic administration; cited from earlier work
man = conditions: burns therapy; cited from earlier work
Balb/C 3T3 fibroblasts = test: Cell growth of Balb/C 3T3 fibroblasts, crystal violet colorimetry (1.1b); format: cell-based, Mouse; conditions: for cell growth t2/t1: 48 h/24 h, control 76.776
Description: Mouse Balb/C 3T3 fibroblasts were grown in DMEM medium supplemented with penicillin (100 units/ml) and streptomycin (0.1 mg/ml). For experimental purposes, cells are routinely inoculated in […] diameter culture dishes (5000cells/dish) and cultured overnight.
The compounds to be tested are solubilized in DMEM+10%FCS and DMSO to obtain the final concentration of 10^-5 M, 10^-6 M e 10^-7 M in 0.05% DMSO.
The cells number is measured 4, 24 and 48 hours after seeding. The cell growth is evaluated as t2/t1 ratio (%).

3T3 fibroblasts = test: Cellular proliferation of 3T3 fibroblasts, neutral red colorimetry (1.1a); format: cell-based, Mice
Description: Experiments on 3T3 fibroblasts
Mice 3T3 fibroblasts cultures sown at a 40.000/ml concentration on plates having 6 wells in a DMEM culture medium enriched with 10% calf serum are used. After 24 hours culture, the 90 prepared wells are divided in order to allow the analyses of the compounds of the invention, every compound to be tested being used respectively at a concentration of 0.1, 1 and 10 μg/ml by subsequent evaluations after 48 and 72 hours of incubation.
Hexadecyltrimethylammoniun (ETA) traumatare: solubilized in water and brought to the desired final concentrations of 0.1. 1 and 10 μg/ml by progressive dilutions;
Ethanolamine traumatate: solubilized in water and brought to the final concentrations of 0.1, 1 and 10 μg/ml by progressive dilutions;
Traumatic acid: neutralized with sodium hydroxyde and solubilized in water, then brought to the final concentrations of 0.1, 1 and 10 μg/ml by progressive dilutions with the culture medium.
The compounds are added to the cells after 24 hours culture. The cells number is measured by colorimetry with the neutral red intravital stain after 24, 48, 72 hours of incubation.

experimental animal = conditions: topical route; cited from earlier work

Which clinical results [1] does the source give for `O=C(O)/C=C/CCCCCCCCC(=O)O` [traumatic acid, 10-dodecendioic] here?
Its clinical results is “Positive clinical results”.

And the “effect on herpetic keratitis model” value (herpetic keratitis)?
The value was “effectiveness on an in vivo herpetic keratitis model both after topic and systemic administration”.

What about the reepithelialization times (man) of the same compound?
The reepithelialization times was “reduces the reepithelialization times”.

And the Cell density (Balb/C 3T3 fibroblasts; 4 h (t0), 10^-5M, control 0.300)?
Its Cell density is 0.478.

What about the Cell density (Balb/C 3T3 fibroblasts; 4 h (t0), 10^-6M, control 0.300) of the same compound?
The Cell density was 0.495.

And the Cell density (Balb/C 3T3 fibroblasts; 4 h (t0), 10^-7M, control 0.300)?
The Cell density was 0.459.

And the Cell density (Balb/C 3T3 fibroblasts; 24 h (t1), 10^-5M, control 0.481)?
The Cell density was 0.317.

And the Cell density (Balb/C 3T3 fibroblasts; 24 h (t1), 10^-6M, control 0.481)?
Its Cell density is 0.320.

What about the Cell density (Balb/C 3T3 fibroblasts; 24 h (t1), 10^-7M, control 0.481) of the same compound?
The Cell density was 0.323.

What about the Cell density (Balb/C 3T3 fibroblasts; 48 h (t2), 10^-5M, control 0.849) of the same compound?
The Cell density was 0.657.

What about the Cell density (Balb/C 3T3 fibroblasts; 48 h (t2), 10^-6M, control 0.849) of the same compound?
Its Cell density is 0.657.

What about the Cell density (Balb/C 3T3 fibroblasts; 48 h (t2), 10^-7M, control 0.849) of the same compound?
Its Cell density is 0.740.

What about the “cell growth t2/t1” value (Balb/C 3T3 fibroblasts; 10^-5M) of the same compound?
The value was 112.273%.

What about the “cell growth t2/t1” value (Balb/C 3T3 fibroblasts; 10^-6M) of the same compound?
Its value is 95.638%.

What about the “cell growth t2/t1” value (Balb/C 3T3 fibroblasts; 10^-7M) of the same compound?
The value was 135.554%.

And the “effect on cells proliferation” value (3T3 fibroblasts; 0.1 μg/ml, in words)?
Its value is “able to affect cells proliferation according to a not statistically significant trend”.

What about the “effect on cellular proliferation” value (3T3 fibroblasts; 1 μg/ml, in words, ETA salt > ethanolamine salt = traumatic acid) of the same compound?
Its value is “able to increase cellular proliferation”.

What about the “cells numeration (colorimetric, neutral red)” value (from here on “cells numeration”) (3T3 fibroblasts; 24 hours of incubation, 0.1 (head: μg/ml), control 0.579 ± 0.021) of the same compound?
Its value is 0.486 ± 0.029.

What about the “cells numeration” value (3T3 fibroblasts; 24 hours of incubation, 1.0 (head: μg/ml), control 0.579 ± 0.021) of the same compound?
The value was 0.510 ± 0.008.

And the “cells numeration” value (3T3 fibroblasts; 24 hours of incubation, 10.0 (head: μg/ml), control 0.579 ± 0.021)?
The value was 0.543 ± 0.019.

And the “cells numeration” value (3T3 fibroblasts; 48 hours of incubation, 0.1 (head: μg/ml), control 1.334 ± 0.050)?
Its value is 1.497 ± 0.087.

What about the “cells numeration” value (3T3 fibroblasts; 48 hours of incubation, 1.0 (head: μg/ml), control 1.334 ± 0.050) of the same compound?
Its value is 1.431 ± 0.047.

What about the “cells numeration” value (3T3 fibroblasts; 48 hours of incubation, 10.0 (head: μg/ml), control 1.334 ± 0.050, ** p < 0.01 significant reduction) of the same compound?
Its value is 1.442 ± 0.060.

What about the “cells numeration” value (3T3 fibroblasts; 72 hours of incubation, 0.1 (head: μg/ml), control 2.360 ± 0.125) of the same compound?
The value was 2.492 ± 0.070.

What about the “cells numeration” value (3T3 fibroblasts; 72 hours of incubation, 1.0 (head: μg/ml), control 2.360 ± 0.125) of the same compound?
Its value is 2.349 ± 0.125.

What about the “cells numeration” value (3T3 fibroblasts; 72 hours of incubation, 10.0 (head: μg/ml), control 2.360 ± 0.125, ** p < 0.01 significant reduction) of the same compound?
The value was 2.446 ± 0.128.

What about the “time necessary for the cells to reach the confluence” value (3T3 fibroblasts; side control experiment, ETA and ethanolamine salts > traumatic acid) of the same compound?
Its value is “reduce the time normally necessary for the cells to reach the confluence”.

What about the “reepithelializing and antiirritant action” value (experimental animal) of the same compound?
Its value is “reepithelializing and antiirritant action”.

From patent publication US5567716A, “Trans and cis traumatic acid salts having cicatrizant activity associated to bacteriostatic, antiviral, antibiotic or antifungal activity” (priority 1992, dated 1996)
